Tests used:
Cannabinoid receptor 2 [1] = target: T1, Cannabinoid receptor 2 (Homo sapiens, UniProt P34972); assay: Agonist activity at human recombinant CB2 receptor expressed in CHO cell membranes assessed as inhibition of forskolin-induced cAMP accumulation; assay type: functional, cell-based
Cannabinoid receptor 1 [2] = target: Cannabinoid receptor 1 (Rattus norvegicus, UniProt P20272); assay: Displacement of [3H]CP-55940 from CB1 receptor in Sprague-Dawley rat brain by scintillation counting
Cannabinoid receptor 2 [3] = target: T1, Cannabinoid receptor 2; assay: Displacement of [3H]CP-55940 from human recombinant CB2 receptor expressed in CHO cell membranes incubated for 60 mins by scintillation counting
Homo sapiens = organism: Homo sapiens; assay: Selectivity ratio of Ki for human recombinant CB1 receptor to KI for human recombinant CB2 receptor
Cannabinoid receptor 2 [4] = target: T2, Cannabinoid receptor 2 (Rattus norvegicus, UniProt Q9QZN9); assay: Displacement of [3H]CP-55940 from CB2 receptor in Sprague-Dawley rat spleen by scintillation counting
T2 sequence (Q9QZN9 whole entry): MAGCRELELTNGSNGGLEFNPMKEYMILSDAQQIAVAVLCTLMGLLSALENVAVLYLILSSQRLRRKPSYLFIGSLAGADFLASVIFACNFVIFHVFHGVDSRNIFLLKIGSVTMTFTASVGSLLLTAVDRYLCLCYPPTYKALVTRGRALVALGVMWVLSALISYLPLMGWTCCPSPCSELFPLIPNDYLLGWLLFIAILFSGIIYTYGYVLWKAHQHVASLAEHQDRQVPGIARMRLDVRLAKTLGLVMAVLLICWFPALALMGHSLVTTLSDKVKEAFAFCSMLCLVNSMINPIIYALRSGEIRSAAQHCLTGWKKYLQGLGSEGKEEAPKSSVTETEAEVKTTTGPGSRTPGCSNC

Cannabinoid receptor 1 [5] = target: Cannabinoid receptor 1 (Homo sapiens, UniProt P21554); assay: Displacement of [3H]CP-55940 from human recombinant CB1 receptor expressed in CHO cell membranes incubated for 90 mins by scintillation counting
Chain of Cannabinoid receptor 1 (Homo sapiens, UniProt P21554) (P21554 whole entry): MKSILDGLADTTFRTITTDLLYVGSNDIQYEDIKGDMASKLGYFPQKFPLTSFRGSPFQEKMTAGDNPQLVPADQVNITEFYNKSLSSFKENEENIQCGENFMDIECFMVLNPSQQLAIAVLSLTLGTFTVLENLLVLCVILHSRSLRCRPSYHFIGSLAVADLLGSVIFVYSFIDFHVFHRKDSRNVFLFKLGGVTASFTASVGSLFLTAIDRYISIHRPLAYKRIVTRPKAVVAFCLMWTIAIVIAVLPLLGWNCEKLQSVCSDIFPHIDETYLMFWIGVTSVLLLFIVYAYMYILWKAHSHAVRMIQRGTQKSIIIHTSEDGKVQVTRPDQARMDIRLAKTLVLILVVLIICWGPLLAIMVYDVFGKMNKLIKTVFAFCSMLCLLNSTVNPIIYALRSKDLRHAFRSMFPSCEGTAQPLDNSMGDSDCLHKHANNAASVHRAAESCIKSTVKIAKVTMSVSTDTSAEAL

Chain of Cannabinoid receptor 1 (Rattus norvegicus, UniProt P20272) (P20272 whole entry): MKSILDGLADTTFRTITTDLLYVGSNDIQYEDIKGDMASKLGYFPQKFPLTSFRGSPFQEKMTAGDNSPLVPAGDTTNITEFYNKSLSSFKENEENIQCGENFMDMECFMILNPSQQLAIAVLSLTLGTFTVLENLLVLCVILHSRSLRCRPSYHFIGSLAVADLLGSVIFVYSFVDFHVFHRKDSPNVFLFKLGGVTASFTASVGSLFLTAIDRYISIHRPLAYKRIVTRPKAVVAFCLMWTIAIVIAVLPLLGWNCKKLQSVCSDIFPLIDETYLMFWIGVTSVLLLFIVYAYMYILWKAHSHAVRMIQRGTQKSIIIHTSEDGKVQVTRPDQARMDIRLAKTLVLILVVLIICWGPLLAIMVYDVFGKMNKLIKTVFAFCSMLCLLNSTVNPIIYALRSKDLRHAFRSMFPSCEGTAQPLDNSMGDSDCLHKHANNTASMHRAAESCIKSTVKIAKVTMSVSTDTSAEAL
T1 sequence (P34972 whole entry): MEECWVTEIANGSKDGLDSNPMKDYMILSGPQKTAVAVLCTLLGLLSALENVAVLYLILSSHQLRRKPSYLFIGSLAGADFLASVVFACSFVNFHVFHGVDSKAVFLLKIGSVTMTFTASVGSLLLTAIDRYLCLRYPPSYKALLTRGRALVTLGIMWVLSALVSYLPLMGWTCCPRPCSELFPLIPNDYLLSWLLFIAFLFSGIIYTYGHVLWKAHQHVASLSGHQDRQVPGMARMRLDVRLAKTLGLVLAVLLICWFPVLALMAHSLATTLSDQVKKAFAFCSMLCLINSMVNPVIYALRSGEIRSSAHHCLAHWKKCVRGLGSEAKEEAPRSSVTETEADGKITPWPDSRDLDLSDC

SMILES | IC50 (Cannabinoid receptor 2 [1]) [nM] | Ki (Cannabinoid receptor 1 [2]) [nM] | Ki (Cannabinoid receptor 2 [3]) [nM] | Ratio Ki (Homo sapiens) | Ki (Cannabinoid receptor 2 [4]) [nM] | Ki (Cannabinoid receptor 1 [5]) [nM]
CCC1COc2cccc3c(=O)c(C(=O)Nc4nccs4)cn1c23 (racemic) | 1130 | 1620 | 265 | 5 | 324 | 1360
CCC1COc2cccc3c(=O)c(C(=O)N(C(C)C)C(C)C)cn1c23 (racemic) | 423 | > 10000 | 85 | > 118 | 104 | > 10000
CCCC1COc2cccc3c(=O)c(C(=O)NC4CCCCC4)cn1c23 (racemic) | 1.53 | 13.4 | 0.32 | 32 | 1.84 | 10.2
CCCC1COc2cccc3c(=O)c(C(=O)NC45CC6CC(CC(C6)C4)C5)cn1c23 (racemic) | 15.3 | 240 | 2.34 | 92 | 2.73 | 215
CCCC1COc2cccc3c(=O)c(C(=O)NC45CC6CC(C)(CC(C)(C6)C4)C5)cn1c23 (racemic) | 20 | 476 | 3.62 | 55 | 10.7 | 200
CCCC1COc2ccc(C)c3c(=O)c(C(=O)NC4CCCCC4)cn1c23 (racemic) | 122 | 874 | 38 | 20 | 43 | 756
CCCC1COc2ccc(C)c3c(=O)c(C(=O)NC45CC6CC(CC(C6)C4)C5)cn1c23 (racemic) | 42 | 476 | 10.4 | 43 | 13.2 | 450
O=C(NC1CCCCC1)c1cn2c3c(cccc3c1=O)OCC2C1CC1 (racemic) | 67 | 123 | 15.3 | 7 | 18.2 | 102
O=C(NC1CCCCCC1)c1cn2c3c(cccc3c1=O)OCC2C1CC1 (racemic) | 12.4 | 101 | 3.12 | 29 | 3.52 | 91
O=C(NC12CC3CC(CC(C3)C1)C2)c1cn2c3c(cccc3c1=O)OCC2C1CC1 (racemic) | 32 | 482 | 8.92 | 44 | 10.3 | 389
CC(C)C1COc2cccc3c(=O)c(C(=O)NC45CC6CC(CC(C6)C4)C5)cn1c23 (racemic) | 12.4 | 366 | 3.74 | 86 | 4.22 | 323
CCC1COc2c(F)ccc3c(=O)c(C(=O)NC45CC6CC(CC(C6)C4)C5)cn1c23 (racemic) | 27 | 452 | 7.34 | 53 | 9.51 | 389
CCC1COc2c(F)c(F)cc3c(=O)c(C(=O)NC45CC6CC(CC(C6)C4)C5)cn1c23 (racemic) | 145 | 1820 | 33 | 53 | 37 | 1750
CCC1COc2c(OC)ccc3c(=O)c(C(=O)NC45CC6CC(CC(C6)C4)C5)cn1c23 (racemic) | 24 | 589 | 6.78 | 77 | 9.12 | 521
O=C(NC12CC3CC(CC(C3)C1)C2)c1cn2c3c(cccc3c1=O)OC(c1ccccc1)C2c1ccccc1 (racemic) |  | > 10000 | > 10000 |  | > 10000 | > 10000
Cc1cc2c3c(c1)c(=O)c(C(=O)NC14CC5CC(CC(C5)C1)C4)cn3C(c1ccccc1)CO2 (racemic) | 472 |  |  |  |  | 
CC1COc2cccc3c(=O)c(C(=O)NC4CCCCCC4)cn1c23 (racemic) | 210 | > 10000 | 38 | > 263 | 52 | > 10000
CC1COc2cccc3c(=O)c(C(=O)NC45CC6CC(CC(C6)C4)C5)cn1c23 (racemic) | 230 | > 10000 | 47 | > 212 | 55 | > 10000
CCC1COc2cccc3c(=O)c(C(=O)NC4CCCCC4)cn1c23 (racemic) | 62 | 972 | 22 | 37 | 24 | 821
CCC1COc2cccc3c(=O)c(C(=O)NC4CCCCCC4)cn1c23 (racemic) | 42 | 498 | 9.24 | 47 | 11.4 | 433
